# Reference: ChEMBL document CHEMBL1132856, “Antitumour activity of sphingoid base adducts of phenethyl isothiocyanate” (2000)
# How the values were obtained:
# Leukemia 60 cell line [1] = assay: Median growth inhibitory concentration of compound tested in vitro against human leukemia 60 cells; type: functional
# Leukemia 60 cell line [2] = assay: Median toxic concentration of compound tested in vitro against human leukemia 60 cells; type: functional; details: read-out: TC50 (the source's name)
smiles,measurement,setting,value
CCCCCCCCCCCCCCCC(O)C(CO)/N=C(\S)NCCc1ccccc1 (stereo not given),GC50,Leukemia 60 cell line [1],1.6 µM
same,CC50,Leukemia 60 cell line [2],2370 nM
CCCCCCCCCCCCC/C=C\C(O)C(CO)/N=C(\S)NCCc1ccccc1 (stereo not given),GC50,Leukemia 60 cell line [1],0.64 µM
same,CC50,Leukemia 60 cell line [2],2530 nM
CCCCCCCCCCCCCCC[C@@H](O)[C@@H](N)CO [DIHYDROSPINGOSINE],GC50,Leukemia 60 cell line [1],0.49 µM
same,CC50,Leukemia 60 cell line [2],2550 nM
S=C=NCCc1ccccc1 [PHENETHYLISOTHIOCYANATE],GC50,Leukemia 60 cell line [1],0.84 µM
same,CC50,Leukemia 60 cell line [2],1370 nM
CCCCCCCCCCCCCC=C[C@@H](O)[C@@H](N)CO [SPHINGOSINE],GC50,Leukemia 60 cell line [1],1.24 µM
same,CC50,Leukemia 60 cell line [2],2420 nM
